Data as given in BindingDB's records for patent US10550100 (GALAPAGOS NV, 2020).

Target: T1, A disintegrin and metalloproteinase with thrombospondin motifs 6 (Human, UniProt Q9UKP5)
T1 sequence (Q9UKP5 whole entry): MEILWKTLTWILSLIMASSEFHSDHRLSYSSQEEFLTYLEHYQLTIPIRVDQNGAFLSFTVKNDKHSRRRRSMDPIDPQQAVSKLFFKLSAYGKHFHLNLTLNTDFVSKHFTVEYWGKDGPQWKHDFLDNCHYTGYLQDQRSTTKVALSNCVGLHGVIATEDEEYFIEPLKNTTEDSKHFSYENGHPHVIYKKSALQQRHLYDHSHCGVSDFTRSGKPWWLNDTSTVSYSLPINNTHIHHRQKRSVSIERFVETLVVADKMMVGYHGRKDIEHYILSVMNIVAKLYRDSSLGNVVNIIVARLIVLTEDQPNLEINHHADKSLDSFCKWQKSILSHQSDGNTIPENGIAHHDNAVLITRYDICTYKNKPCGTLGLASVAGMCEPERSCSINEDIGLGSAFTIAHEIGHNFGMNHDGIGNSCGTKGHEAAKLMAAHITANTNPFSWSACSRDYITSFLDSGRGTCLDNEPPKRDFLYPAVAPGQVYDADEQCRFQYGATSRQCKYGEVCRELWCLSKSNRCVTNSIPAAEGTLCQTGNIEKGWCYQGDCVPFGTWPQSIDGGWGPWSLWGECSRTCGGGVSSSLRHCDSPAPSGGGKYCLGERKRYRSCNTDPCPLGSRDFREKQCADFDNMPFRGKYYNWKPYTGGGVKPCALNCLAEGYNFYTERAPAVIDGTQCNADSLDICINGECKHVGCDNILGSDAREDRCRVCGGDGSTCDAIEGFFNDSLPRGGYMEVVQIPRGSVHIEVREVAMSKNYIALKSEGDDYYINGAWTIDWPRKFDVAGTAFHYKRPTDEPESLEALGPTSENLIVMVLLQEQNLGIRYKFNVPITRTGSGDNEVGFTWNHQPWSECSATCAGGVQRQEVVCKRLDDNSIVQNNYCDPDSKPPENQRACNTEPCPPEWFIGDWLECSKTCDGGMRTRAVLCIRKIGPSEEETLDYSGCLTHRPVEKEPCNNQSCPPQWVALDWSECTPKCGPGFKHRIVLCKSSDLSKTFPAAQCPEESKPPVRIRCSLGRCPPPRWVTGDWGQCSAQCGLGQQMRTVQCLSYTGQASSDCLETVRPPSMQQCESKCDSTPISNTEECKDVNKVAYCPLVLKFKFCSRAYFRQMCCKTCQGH
Experiment: hADAMTS-6 Assay
Procedure: Without ADAMTS6, the emission of the probe is quenched. If the substrate is cleaved by ADAMTS6, the emission of the probe is not quenched anymore. […] The reaction is started by addition of 10 μL of 1 μM 520 MMP FRET Substrate XII (final concentration, diluted in same buffer as described above) and the mixture is incubated at 37° C. for 2 h. […] After this incubation, cleavage of the substrate is measured using the Envision (Perkin Elmer, exc485/em530).

- IC50: > 100 nM
SMILES: COc1c(Cl)cc(Cl)cc1C1CCN(C(=O)CC[C@H]2NC(=O)NC2=O)CC1 [US10550100, Compound 70]
